As a reminder, the inhibition is the percentage by which the read-out fell short of the control.

Common to all, as to conditions: PC-3
Test [1] deals with T1, Mitogen-activated protein kinase kinase kinase 3 (Homo sapiens) (UniProt Q99759).
T1 sequence (whole entry): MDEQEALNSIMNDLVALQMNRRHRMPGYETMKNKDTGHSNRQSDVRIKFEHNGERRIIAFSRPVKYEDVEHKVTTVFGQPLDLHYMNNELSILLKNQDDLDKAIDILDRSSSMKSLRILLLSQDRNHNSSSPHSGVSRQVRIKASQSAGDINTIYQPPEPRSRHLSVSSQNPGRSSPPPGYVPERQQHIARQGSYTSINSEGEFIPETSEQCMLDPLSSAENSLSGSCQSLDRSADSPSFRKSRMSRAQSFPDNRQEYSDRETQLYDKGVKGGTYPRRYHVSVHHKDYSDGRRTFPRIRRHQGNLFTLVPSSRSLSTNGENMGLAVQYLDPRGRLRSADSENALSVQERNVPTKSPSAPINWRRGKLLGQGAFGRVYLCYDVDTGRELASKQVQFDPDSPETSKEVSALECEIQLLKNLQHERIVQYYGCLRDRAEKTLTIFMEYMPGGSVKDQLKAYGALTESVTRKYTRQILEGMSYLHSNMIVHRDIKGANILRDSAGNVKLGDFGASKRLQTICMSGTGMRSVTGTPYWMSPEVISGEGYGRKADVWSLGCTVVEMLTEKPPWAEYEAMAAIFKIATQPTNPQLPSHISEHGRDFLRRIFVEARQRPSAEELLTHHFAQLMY
The experiment in a line: Inhibition of MAP3K3 in human PC3 cell lysates at 10 uM using desthiobiotin-tagged ATP probe AX9989 followed by trypsinization by LC/MS analysis.

For test [2], the target named is Ephrin type-A receptor 2 (Homo sapiens) (UniProt P29317). The experiment in a line: Inhibition of EphA2 in human PC3 cell lysates at 10 uM using desthiobiotin-tagged ATP probe AX9989 followed by trypsinization by LC/MS analysis.
In test [3] the target is T2, Ephrin type-A receptor 1 (Homo sapiens) (UniProt P21709).
T2 sequence (whole entry): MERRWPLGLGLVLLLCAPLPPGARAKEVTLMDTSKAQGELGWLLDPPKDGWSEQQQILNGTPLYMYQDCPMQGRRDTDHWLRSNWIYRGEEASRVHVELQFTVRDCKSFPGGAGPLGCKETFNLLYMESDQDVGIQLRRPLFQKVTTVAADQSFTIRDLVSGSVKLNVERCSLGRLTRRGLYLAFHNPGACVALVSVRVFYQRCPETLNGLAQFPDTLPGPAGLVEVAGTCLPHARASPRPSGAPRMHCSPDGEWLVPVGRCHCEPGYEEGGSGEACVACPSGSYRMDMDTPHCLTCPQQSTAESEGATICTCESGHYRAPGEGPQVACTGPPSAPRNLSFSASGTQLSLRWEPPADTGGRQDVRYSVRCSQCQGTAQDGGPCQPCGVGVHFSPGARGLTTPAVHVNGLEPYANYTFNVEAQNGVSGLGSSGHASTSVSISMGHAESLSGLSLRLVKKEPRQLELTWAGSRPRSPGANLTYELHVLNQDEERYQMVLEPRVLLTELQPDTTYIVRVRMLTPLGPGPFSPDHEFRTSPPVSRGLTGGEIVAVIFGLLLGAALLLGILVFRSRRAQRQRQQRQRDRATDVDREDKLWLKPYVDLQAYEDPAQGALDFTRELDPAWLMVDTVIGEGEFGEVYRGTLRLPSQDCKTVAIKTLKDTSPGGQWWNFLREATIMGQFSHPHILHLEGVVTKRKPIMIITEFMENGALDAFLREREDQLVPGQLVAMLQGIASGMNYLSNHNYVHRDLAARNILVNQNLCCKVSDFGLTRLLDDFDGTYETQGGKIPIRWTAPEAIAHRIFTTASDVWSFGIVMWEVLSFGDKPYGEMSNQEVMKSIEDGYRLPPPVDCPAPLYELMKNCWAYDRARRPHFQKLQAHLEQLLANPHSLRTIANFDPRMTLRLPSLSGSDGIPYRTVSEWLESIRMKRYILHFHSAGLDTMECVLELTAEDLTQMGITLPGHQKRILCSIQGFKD
The experiment in a line: Inhibition of EphA1 in human PC3 cell lysates at 10 uM using desthiobiotin-tagged ATP probe AX9989 followed by trypsinization by LC/MS analysis.

Test [4] deals with T3, EKC/KEOPS complex subunit TP53RK (Homo sapiens) (UniProt Q96S44).
T3 sequence (whole entry): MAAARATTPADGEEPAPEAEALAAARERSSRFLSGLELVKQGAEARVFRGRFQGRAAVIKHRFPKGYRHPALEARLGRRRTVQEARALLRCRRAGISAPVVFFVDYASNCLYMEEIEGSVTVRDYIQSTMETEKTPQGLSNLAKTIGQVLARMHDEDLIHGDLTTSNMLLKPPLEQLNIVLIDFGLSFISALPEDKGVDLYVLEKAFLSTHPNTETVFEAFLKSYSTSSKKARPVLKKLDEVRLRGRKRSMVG
The experiment in a line: Inhibition of PRPK in human PC3 cell lysates at 10 uM using desthiobiotin-tagged ATP probe AX9989 followed by trypsinization by LC/MS analysis.

The target of test [5] is Serine/threonine-protein kinase WNK4 (Homo sapiens) (UniProt Q96J92). Briefly: Inhibition of Wnk4 in human PC3 cell lysates at 10 uM using desthiobiotin-tagged ATP probe AX9989 followed by trypsinization by LC/MS analysis.
The target of test [6] is Serine/threonine-protein kinase tousled-like 2 (Homo sapiens) (UniProt Q86UE8). Briefly: Inhibition of TLK2 in human PC3 cell lysates at 10 uM using desthiobiotin-tagged ATP probe AX9989 followed by trypsinization by LC/MS analysis.
In test [7] the target is Rho-associated protein kinase 2 (Homo sapiens) (UniProt O75116). The experiment in a line: Inhibition of ROCK2 in human PC3 cell lysates at 10 uM using desthiobiotin-tagged ATP probe AX9989 followed by trypsinization by LC/MS analysis.
In test [8] the target is T4, Serine/threonine-protein kinase 3 (Homo sapiens) (UniProt Q13188).
T4 sequence (whole entry): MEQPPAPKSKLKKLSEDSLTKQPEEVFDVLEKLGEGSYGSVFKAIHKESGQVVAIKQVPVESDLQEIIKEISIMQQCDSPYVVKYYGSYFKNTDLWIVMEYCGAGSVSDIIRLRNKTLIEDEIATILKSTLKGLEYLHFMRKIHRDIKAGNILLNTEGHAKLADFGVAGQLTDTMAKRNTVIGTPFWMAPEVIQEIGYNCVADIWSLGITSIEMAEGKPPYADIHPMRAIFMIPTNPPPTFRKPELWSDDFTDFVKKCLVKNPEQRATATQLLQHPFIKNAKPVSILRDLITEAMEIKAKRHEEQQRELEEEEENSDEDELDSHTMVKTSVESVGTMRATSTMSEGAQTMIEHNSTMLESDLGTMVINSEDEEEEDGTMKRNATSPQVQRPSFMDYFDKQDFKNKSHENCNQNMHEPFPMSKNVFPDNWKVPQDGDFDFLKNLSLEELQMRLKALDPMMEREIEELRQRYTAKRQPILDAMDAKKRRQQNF
Briefly: Inhibition of MST2 in human PC3 cell lysates at 10 uM using desthiobiotin-tagged ATP probe AX9989 followed by trypsinization by LC/MS analysis.

Chain of Serine/threonine-protein kinase tousled-like 2 (Homo sapiens) (Q86UE8 whole entry, looked up): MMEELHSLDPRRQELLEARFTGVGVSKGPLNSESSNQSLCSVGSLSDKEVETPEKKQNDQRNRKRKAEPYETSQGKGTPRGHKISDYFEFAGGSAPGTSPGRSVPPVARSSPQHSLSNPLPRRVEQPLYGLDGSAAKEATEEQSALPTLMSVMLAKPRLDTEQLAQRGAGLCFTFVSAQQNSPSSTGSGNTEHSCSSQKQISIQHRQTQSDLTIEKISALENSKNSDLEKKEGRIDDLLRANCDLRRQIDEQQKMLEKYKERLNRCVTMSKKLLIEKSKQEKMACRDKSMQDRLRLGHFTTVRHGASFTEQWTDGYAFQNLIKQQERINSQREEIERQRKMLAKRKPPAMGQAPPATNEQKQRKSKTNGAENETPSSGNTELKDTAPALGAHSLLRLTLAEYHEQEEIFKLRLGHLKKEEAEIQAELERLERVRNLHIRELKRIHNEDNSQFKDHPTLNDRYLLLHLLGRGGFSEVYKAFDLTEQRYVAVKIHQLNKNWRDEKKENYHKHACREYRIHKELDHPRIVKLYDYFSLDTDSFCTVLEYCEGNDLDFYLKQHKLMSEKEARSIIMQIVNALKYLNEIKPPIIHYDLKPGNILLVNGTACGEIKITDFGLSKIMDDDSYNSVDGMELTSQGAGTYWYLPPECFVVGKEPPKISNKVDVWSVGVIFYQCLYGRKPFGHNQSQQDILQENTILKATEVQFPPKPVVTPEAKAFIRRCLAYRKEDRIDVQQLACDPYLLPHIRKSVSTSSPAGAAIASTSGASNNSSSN
Chain of Rho-associated protein kinase 2 (Homo sapiens) (O75116 whole entry, looked up): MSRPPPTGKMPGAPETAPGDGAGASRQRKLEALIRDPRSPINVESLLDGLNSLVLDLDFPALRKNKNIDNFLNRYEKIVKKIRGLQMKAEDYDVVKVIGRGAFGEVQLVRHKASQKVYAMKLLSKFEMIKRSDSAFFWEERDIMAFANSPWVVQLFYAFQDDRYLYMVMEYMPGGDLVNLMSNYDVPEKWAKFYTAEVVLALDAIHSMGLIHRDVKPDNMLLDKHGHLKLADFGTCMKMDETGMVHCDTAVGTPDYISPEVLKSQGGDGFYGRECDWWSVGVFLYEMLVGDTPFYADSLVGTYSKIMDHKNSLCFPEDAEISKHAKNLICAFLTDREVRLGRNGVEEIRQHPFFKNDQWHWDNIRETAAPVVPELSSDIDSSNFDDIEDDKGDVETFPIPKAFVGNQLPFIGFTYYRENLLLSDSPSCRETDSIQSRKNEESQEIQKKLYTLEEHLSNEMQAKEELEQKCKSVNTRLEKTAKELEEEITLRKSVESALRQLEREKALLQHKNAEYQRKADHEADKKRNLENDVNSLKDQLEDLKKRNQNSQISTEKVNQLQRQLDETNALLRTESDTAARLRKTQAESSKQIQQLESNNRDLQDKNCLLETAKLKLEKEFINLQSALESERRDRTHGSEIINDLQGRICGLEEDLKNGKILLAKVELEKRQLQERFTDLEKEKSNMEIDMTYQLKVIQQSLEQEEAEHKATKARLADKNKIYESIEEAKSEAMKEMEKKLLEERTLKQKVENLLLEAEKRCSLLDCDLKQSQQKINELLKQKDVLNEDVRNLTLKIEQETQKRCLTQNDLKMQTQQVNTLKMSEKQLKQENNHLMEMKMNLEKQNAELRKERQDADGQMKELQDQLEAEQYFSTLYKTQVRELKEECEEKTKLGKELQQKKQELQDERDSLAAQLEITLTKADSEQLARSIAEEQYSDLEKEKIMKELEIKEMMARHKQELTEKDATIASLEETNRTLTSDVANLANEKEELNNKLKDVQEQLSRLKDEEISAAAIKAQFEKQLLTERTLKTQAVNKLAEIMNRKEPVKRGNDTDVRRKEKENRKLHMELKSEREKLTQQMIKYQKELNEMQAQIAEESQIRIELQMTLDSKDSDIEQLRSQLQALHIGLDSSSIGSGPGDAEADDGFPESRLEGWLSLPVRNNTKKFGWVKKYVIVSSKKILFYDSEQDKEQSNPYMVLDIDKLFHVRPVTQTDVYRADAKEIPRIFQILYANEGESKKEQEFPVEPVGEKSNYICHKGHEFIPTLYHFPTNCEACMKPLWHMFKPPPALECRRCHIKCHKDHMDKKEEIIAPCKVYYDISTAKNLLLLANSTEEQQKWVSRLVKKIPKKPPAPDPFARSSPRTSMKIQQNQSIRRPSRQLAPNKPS
Chain of Ephrin type-A receptor 2 (Homo sapiens) (P29317 whole entry): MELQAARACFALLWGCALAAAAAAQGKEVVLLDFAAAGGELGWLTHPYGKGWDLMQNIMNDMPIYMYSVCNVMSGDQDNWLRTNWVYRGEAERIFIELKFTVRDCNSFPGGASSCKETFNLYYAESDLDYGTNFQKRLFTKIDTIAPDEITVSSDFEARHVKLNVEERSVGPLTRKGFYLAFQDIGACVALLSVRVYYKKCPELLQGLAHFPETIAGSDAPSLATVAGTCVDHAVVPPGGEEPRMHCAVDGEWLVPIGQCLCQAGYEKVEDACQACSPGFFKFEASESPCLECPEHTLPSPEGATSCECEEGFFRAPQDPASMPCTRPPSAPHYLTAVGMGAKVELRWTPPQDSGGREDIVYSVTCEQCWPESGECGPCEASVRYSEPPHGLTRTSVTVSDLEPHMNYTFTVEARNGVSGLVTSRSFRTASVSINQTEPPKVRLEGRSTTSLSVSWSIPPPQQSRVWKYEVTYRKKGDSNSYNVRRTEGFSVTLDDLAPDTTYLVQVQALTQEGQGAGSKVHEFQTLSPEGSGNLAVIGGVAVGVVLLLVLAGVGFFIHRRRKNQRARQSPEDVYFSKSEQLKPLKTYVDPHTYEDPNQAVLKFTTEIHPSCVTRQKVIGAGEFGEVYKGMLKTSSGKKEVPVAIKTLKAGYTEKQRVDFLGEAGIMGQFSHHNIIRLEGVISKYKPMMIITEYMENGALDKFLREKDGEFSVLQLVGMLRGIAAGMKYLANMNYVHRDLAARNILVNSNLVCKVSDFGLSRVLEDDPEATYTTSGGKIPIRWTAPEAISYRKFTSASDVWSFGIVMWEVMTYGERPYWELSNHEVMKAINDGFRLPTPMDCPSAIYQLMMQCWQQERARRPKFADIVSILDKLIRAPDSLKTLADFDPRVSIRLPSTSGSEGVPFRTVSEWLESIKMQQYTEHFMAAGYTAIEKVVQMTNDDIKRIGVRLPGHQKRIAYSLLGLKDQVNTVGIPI
Chain of Serine/threonine-protein kinase WNK4 (Homo sapiens) (Q96J92 whole entry): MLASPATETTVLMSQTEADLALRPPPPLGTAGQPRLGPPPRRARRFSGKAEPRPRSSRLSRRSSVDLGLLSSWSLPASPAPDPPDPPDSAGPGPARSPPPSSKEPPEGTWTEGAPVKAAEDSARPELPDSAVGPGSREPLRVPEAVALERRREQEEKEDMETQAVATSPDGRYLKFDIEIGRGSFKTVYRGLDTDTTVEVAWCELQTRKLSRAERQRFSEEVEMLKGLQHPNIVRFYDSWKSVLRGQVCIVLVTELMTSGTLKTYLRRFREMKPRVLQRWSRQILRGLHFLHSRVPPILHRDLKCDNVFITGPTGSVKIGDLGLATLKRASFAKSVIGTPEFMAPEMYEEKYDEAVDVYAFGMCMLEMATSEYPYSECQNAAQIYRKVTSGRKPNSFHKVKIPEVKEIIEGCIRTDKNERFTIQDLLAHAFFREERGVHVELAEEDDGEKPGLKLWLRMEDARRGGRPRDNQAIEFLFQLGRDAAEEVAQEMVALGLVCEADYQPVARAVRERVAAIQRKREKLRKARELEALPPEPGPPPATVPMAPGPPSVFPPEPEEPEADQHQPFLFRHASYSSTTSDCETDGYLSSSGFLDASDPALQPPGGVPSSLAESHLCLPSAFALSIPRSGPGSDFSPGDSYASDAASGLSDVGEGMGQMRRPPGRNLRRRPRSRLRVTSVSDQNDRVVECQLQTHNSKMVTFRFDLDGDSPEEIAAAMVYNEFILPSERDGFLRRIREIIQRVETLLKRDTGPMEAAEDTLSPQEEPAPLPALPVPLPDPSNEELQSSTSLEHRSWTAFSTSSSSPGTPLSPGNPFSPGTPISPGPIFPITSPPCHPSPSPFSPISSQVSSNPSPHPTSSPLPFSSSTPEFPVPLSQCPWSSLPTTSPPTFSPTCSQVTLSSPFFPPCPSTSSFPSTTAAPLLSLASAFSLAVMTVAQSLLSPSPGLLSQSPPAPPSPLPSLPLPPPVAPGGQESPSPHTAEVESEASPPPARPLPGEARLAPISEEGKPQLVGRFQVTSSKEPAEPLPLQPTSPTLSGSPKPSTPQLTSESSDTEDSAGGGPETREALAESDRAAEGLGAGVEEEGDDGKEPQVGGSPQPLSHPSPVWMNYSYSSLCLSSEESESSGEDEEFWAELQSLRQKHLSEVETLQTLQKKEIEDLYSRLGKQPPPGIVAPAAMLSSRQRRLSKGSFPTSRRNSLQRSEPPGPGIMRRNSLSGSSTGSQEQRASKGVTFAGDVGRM

Consider `CC[C@@H](NC(=O)c1ccc2nc(N[C@H]3CC[C@H](O)CC3)c3nccn3c2c1)c1ccccc1`, for which the inhibition in test [1], in test [2], in test [3], in test [4], in test [5] and in test [6] was less than 35% in each case. In addition, the inhibition in test [7] and in test [8] was less than 35% each time.

Take `O=C(N[C@H](CO)c1ccccc1)c1ccc2nc(N[C@H]3CC[C@H](O)CC3)c3nccn3c2c1`: the inhibition in test [1], in test [2], in test [3], in test [4], in test [5] and in test [6] was less than 35% in each case. Also, the inhibition in test [7] and in test [8] was less than 35% each time.

`O=C(NC1(c2ccccc2)CCC1)c1ccc2nc(N[C@H]3CC[C@H](O)CC3)c3nccn3c2c1`: the inhibition in test [1], in test [2], in test [3], in test [4], in test [5] and in test [6] was less than 35% in each case. Moreover, the inhibition in test [7] and in test [8] was less than 35% throughout.

As to `CCC[C@@H](NC(=O)c1ccc2nc(N[C@H]3CC[C@H](O)CC3)c3nccn3c2c1)c1ccccc1`, the inhibition in test [1], in test [2], in test [3], in test [4], in test [5] and in test [6] was less than 35% throughout. The inhibition in test [7] and in test [8] was less than 35% throughout.

For `CC(C)(NC(=O)c1ccc2nc(N[C@H]3CC[C@H](O)CC3)c3nccn3c2c1)c1ccccc1`, the inhibition in test [1], in test [2], in test [3], in test [4], in test [5] and in test [6] was less than 35% each time. For the same molecule, the inhibition in test [7] and in test [8] was less than 35% throughout.

With `O=C(O)c1ccc2nc(N[C@H]3CC[C@H](O)CC3)c3nccn3c2c1`, the inhibition in test [1] was less than 35%; in test [2], less than 35%; in test [3] it was less than 35%; in test [4] it was 86.6%; in test [5], less than 35%; in test [6], less than 35%. For the same molecule, the inhibition in test [7] and in test [8] was less than 35% in each case.

With `O=C(NC1(c2ccccc2)CC1)c1ccc2nc(N[C@H]3CC[C@H](O)CC3)c3nccn3c2c1`, the inhibition in test [1], in test [2], in test [3], in test [4], in test [5] and in test [6] was less than 35% in each case. The inhibition in test [7] and in test [8] was less than 35% throughout.

For the molecule `NC(=O)c1ccc2nc(N[C@H]3CC[C@H](O)CC3)c3nccn3c2c1`, the inhibition in test [1], in test [2], in test [3], in test [4], in test [5] and in test [6] was less than 35% throughout. The inhibition in test [7] and in test [8] was less than 35% throughout.

With `C[C@@H](NC(=O)c1ccc2nc(N[C@H]3CC[C@H](O)CC3)c3nccn3c2c1)c1ccccc1`, the inhibition in test [1], in test [2], in test [3], in test [4], in test [5] and in test [6] was less than 35% throughout. Also, the inhibition in test [7] and in test [8] was less than 35% each time.

With `C[C@H](NC(=O)c1ccc2nc(N[C@H]3CC[C@H](O)CC3)c3nccn3c2c1)c1ccccc1`, the inhibition in test [1], in test [2], in test [3], in test [4], in test [5] and in test [6] was less than 35% in each case. For the same molecule, the inhibition in test [7] and in test [8] was less than 35% each time.

`O=C(NC1(c2ccc(F)cc2)CC1)c1ccc2nc(N[C@H]3CC[C@H](O)CC3)c3nccn3c2c1`: the inhibition in test [1], in test [2], in test [3], in test [4], in test [5] and in test [6] was less than 35% in each case. Moreover, the inhibition in test [7] and in test [8] was less than 35% throughout.

On to `O=C(NC1(Cc2ccc(F)cc2)CC1)c1ccc2nc(N[C@H]3CC[C@H](O)CC3)c3nccn3c2c1`, for which the inhibition in test [1], in test [2], in test [3], in test [4], in test [5] and in test [6] was less than 35% in each case. Moreover, the inhibition in test [7] and in test [8] was less than 35% in each case.

The values are drawn from ChEMBL document CHEMBL2417377, “Hit-to-lead optimization and kinase selectivity of imidazo[1,2-a]quinoxalin-4-amine derived JNK1 inhibitors” (Bioorg Med Chem Lett, 2013).
